According to US10986838B2, “Herbicides” (SYNGENTA PARTICIPATIONS AG, priority 2016, dated 2021):

Tested on: Setaria faberi (SETFA)
Experiment: Post-emergence herbicidal activity (B2)
Format: in vivo
Conditions: Test B2b, 1000 g/ha, evaluated after 13 days, 5=total damage to plant, 0=no damage to plant
Procedure: (§1) B2 Post-Emergence Herbicidal Activity Seeds of a variety of test species were sown in standard soil in pots: Triticum aestivium (TRZAW), Avena fatua (AVEFA), Alopecurus myosuroides (ALOMY), Echinochloa crus-galli (ECHCG), Lolium perenne (LOLPE), Zea Mays (ZEAMX), Abutilon theophrasti (ABUTH), Amaranthus retroflexus (AMARE) and Setaria faberi (SETFA). After 8 days cultivation (post-emergence) under controlled conditions in a glasshouse (at 24/16° C., day/night; 14 hours light; 65% humidity), the plants were sprayed with an aqueous spray solution derived from the formulation of the technical active ingredient in acetone/water (50:50) solution containing 0.5% Tween 20 (polyoxyethelyene sorbitan monolaurate, CAS RN 9005-64-5). The test plants were then grown in a glasshouse under controlled conditions (at 24/16° C., day/night; 14 hours light; 65% humidity) and watered twice daily. After 13 days, the test was evaluated (5=total damage to plant; 0=no damage to plant). Tables B2a and B2b Control of Weed Species by Compound of Formula (I) after Post-Emergence Application

SMILES | SETFA damage score
Fc1cncc(-c2ccc(Nc3ccccc3)c(C(F)(F)F)n2)c1 [Compound A32, 6-(5-fluoro-3-pyridyl)-N-phenyl-2-(trifluoromethyl)pyridin-3-amine] | 5
Cc1nc(-c2cncc(C(F)(F)F)c2)ccc1N [Compound A12] | 1
Nc1ccc(-c2cncnc2)nc1C(F)(F)F [Compound A35, 6-pyrimidin-5-yl-2-(trifluoromethyl)pyridin-3-amine] | 5
Fc1cncc(-c2ccc(NCc3ccc(C(F)(F)F)cc3)c(C(F)(F)F)n2)c1 [Compound A26] | 4
CCNc1ccc(-c2cncc(F)c2)nc1C(F)(F)F [Compound A27] | 5
CNc1ccc(-c2cncc(C)c2)nc1C(F)(F)F [Compound A6] | 3

Tested on: Zea Mays (ZEAMX)
Experiment: Post-emergence herbicidal activity (B2)
Format: in vivo
Conditions: Test B2b, 1000 g/ha, evaluated after 13 days, 5=total damage to plant, 0=no damage to plant
Procedure: as §1

SMILES | ZEAMX damage score
Fc1cncc(-c2ccc(Nc3ccccc3)c(C(F)(F)F)n2)c1 [Compound A32, 6-(5-fluoro-3-pyridyl)-N-phenyl-2-(trifluoromethyl)pyridin-3-amine] | 4
Cc1nc(-c2cncc(C(F)(F)F)c2)ccc1N [Compound A12] | 1
Nc1ccc(-c2cncnc2)nc1C(F)(F)F [Compound A35, 6-pyrimidin-5-yl-2-(trifluoromethyl)pyridin-3-amine] | 5
Fc1cncc(-c2ccc(NCc3ccc(C(F)(F)F)cc3)c(C(F)(F)F)n2)c1 [Compound A26] | 5
CCNc1ccc(-c2cncc(F)c2)nc1C(F)(F)F [Compound A27] | 5
CNc1ccc(-c2cncc(C)c2)nc1C(F)(F)F [Compound A6] | 1

Tested on: Lolium perenne (LOLPE)
Experiment: Post-emergence herbicidal activity (B2)
Format: in vivo
Conditions: Test B2b, 1000 g/ha, evaluated after 13 days, 5=total damage to plant, 0=no damage to plant
Procedure: as §1

SMILES | LOLPE damage score
Fc1cncc(-c2ccc(Nc3ccccc3)c(C(F)(F)F)n2)c1 [Compound A32, 6-(5-fluoro-3-pyridyl)-N-phenyl-2-(trifluoromethyl)pyridin-3-amine] | 3
Cc1nc(-c2cncc(C(F)(F)F)c2)ccc1N [Compound A12] | 0
Nc1ccc(-c2cncnc2)nc1C(F)(F)F [Compound A35, 6-pyrimidin-5-yl-2-(trifluoromethyl)pyridin-3-amine] | 4
Fc1cncc(-c2ccc(NCc3ccc(C(F)(F)F)cc3)c(C(F)(F)F)n2)c1 [Compound A26] | 2
CCNc1ccc(-c2cncc(F)c2)nc1C(F)(F)F [Compound A27] | 4
CNc1ccc(-c2cncc(C)c2)nc1C(F)(F)F [Compound A6] | 1

Tested on: Echinochloa crus-galli (ECHCG)
Experiment: Post-emergence herbicidal activity (B2)
Format: in vivo
Conditions: Test B2b, 1000 g/ha, evaluated after 13 days, 5=total damage to plant, 0=no damage to plant
Procedure: as §1

SMILES | ECHCG damage score
Fc1cncc(-c2ccc(Nc3ccccc3)c(C(F)(F)F)n2)c1 [Compound A32, 6-(5-fluoro-3-pyridyl)-N-phenyl-2-(trifluoromethyl)pyridin-3-amine] | 4
Cc1nc(-c2cncc(C(F)(F)F)c2)ccc1N [Compound A12] | 1
Nc1ccc(-c2cncnc2)nc1C(F)(F)F [Compound A35, 6-pyrimidin-5-yl-2-(trifluoromethyl)pyridin-3-amine] | 4
Fc1cncc(-c2ccc(NCc3ccc(C(F)(F)F)cc3)c(C(F)(F)F)n2)c1 [Compound A26] | 3
CCNc1ccc(-c2cncc(F)c2)nc1C(F)(F)F [Compound A27] | 4
CNc1ccc(-c2cncc(C)c2)nc1C(F)(F)F [Compound A6] | 1

Tested on: Abutilon theophrasti (ABUTH)
Experiment: Post-emergence herbicidal activity (B2)
Format: in vivo
Conditions: Test B2b, 1000 g/ha, evaluated after 13 days, 5=total damage to plant, 0=no damage to plant
Procedure: as §1

SMILES | ABUTH damage score
Fc1cncc(-c2ccc(Nc3ccccc3)c(C(F)(F)F)n2)c1 [Compound A32, 6-(5-fluoro-3-pyridyl)-N-phenyl-2-(trifluoromethyl)pyridin-3-amine] | 0
Cc1nc(-c2cncc(C(F)(F)F)c2)ccc1N [Compound A12] | 0
Nc1ccc(-c2cncnc2)nc1C(F)(F)F [Compound A35, 6-pyrimidin-5-yl-2-(trifluoromethyl)pyridin-3-amine] | 1
Fc1cncc(-c2ccc(NCc3ccc(C(F)(F)F)cc3)c(C(F)(F)F)n2)c1 [Compound A26] | 0
CCNc1ccc(-c2cncc(F)c2)nc1C(F)(F)F [Compound A27] | 0
CNc1ccc(-c2cncc(C)c2)nc1C(F)(F)F [Compound A6] | 0

Tested on: Amaranthus retroflexus (AMARE)
Experiment: Post-emergence herbicidal activity (B2)
Format: in vivo
Conditions: Test B2b, 1000 g/ha, evaluated after 13 days, 5=total damage to plant, 0=no damage to plant
Procedure: as §1

SMILES | AMARE damage score
Fc1cncc(-c2ccc(Nc3ccccc3)c(C(F)(F)F)n2)c1 [Compound A32, 6-(5-fluoro-3-pyridyl)-N-phenyl-2-(trifluoromethyl)pyridin-3-amine] | 0
Cc1nc(-c2cncc(C(F)(F)F)c2)ccc1N [Compound A12] | 0
Nc1ccc(-c2cncnc2)nc1C(F)(F)F [Compound A35, 6-pyrimidin-5-yl-2-(trifluoromethyl)pyridin-3-amine] | 2
Fc1cncc(-c2ccc(NCc3ccc(C(F)(F)F)cc3)c(C(F)(F)F)n2)c1 [Compound A26] | 0
CCNc1ccc(-c2cncc(F)c2)nc1C(F)(F)F [Compound A27] | 0
CNc1ccc(-c2cncc(C)c2)nc1C(F)(F)F [Compound A6] | 0

Tested on: Setaria faberi (SETFA)
Experiment: Pre-emergence herbicidal activity (B1)
Format: in vivo
Conditions: Test 1b, 1000 g/ha, evaluated after 13 days, 5=total damage to plant, 0=no damage to plant
Procedure: as §1, with “B1 Pre-Emergence” for “B2 Post-Emergence”, “After” for “After 8 days”, “for one day (pre-emergence)” for “(post-emergence)”, “B1a” for “B2a”, “B1b” for “B2b”, “Pre-Emergence” for “Post-Emergence”

SMILES | SETFA damage score
Fc1cncc(-c2ccc(Nc3ccccc3)c(C(F)(F)F)n2)c1 [Compound A32, 6-(5-fluoro-3-pyridyl)-N-phenyl-2-(trifluoromethyl)pyridin-3-amine] | 5
Cc1nc(-c2cncc(C(F)(F)F)c2)ccc1N [Compound A12] | 0
Nc1ccc(-c2cncnc2)nc1C(F)(F)F [Compound A35, 6-pyrimidin-5-yl-2-(trifluoromethyl)pyridin-3-amine] | 4
Fc1cncc(-c2ccc(NCc3ccc(C(F)(F)F)cc3)c(C(F)(F)F)n2)c1 [Compound A26] | 4
CCNc1ccc(-c2cncc(F)c2)nc1C(F)(F)F [Compound A27] | 4
CNc1ccc(-c2cncc(C)c2)nc1C(F)(F)F [Compound A6] | 1

Tested on: Zea Mays (ZEAMX)
Experiment: Pre-emergence herbicidal activity (B1)
Format: in vivo
Conditions: Test 1b, 1000 g/ha, evaluated after 13 days, 5=total damage to plant, 0=no damage to plant
Procedure: as §1, with “B1 Pre-Emergence” for “B2 Post-Emergence”, “After” for “After 8 days”, “for one day (pre-emergence)” for “(post-emergence)”, “B1a” for “B2a”, “B1b” for “B2b”, “Pre-Emergence” for “Post-Emergence”

SMILES | ZEAMX damage score
Fc1cncc(-c2ccc(Nc3ccccc3)c(C(F)(F)F)n2)c1 [Compound A32, 6-(5-fluoro-3-pyridyl)-N-phenyl-2-(trifluoromethyl)pyridin-3-amine] | 1
Cc1nc(-c2cncc(C(F)(F)F)c2)ccc1N [Compound A12] | 0
Nc1ccc(-c2cncnc2)nc1C(F)(F)F [Compound A35, 6-pyrimidin-5-yl-2-(trifluoromethyl)pyridin-3-amine] | 5
Fc1cncc(-c2ccc(NCc3ccc(C(F)(F)F)cc3)c(C(F)(F)F)n2)c1 [Compound A26] | 2
CCNc1ccc(-c2cncc(F)c2)nc1C(F)(F)F [Compound A27] | 5
CNc1ccc(-c2cncc(C)c2)nc1C(F)(F)F [Compound A6] | 0

Tested on: Lolium perenne (LOLPE)
Experiment: Pre-emergence herbicidal activity (B1)
Format: in vivo
Conditions: Test 1b, 1000 g/ha, evaluated after 13 days, 5=total damage to plant, 0=no damage to plant
Procedure: as §1, with “B1 Pre-Emergence” for “B2 Post-Emergence”, “After” for “After 8 days”, “for one day (pre-emergence)” for “(post-emergence)”, “B1a” for “B2a”, “B1b” for “B2b”, “Pre-Emergence” for “Post-Emergence”

SMILES | LOLPE damage score
Fc1cncc(-c2ccc(Nc3ccccc3)c(C(F)(F)F)n2)c1 [Compound A32, 6-(5-fluoro-3-pyridyl)-N-phenyl-2-(trifluoromethyl)pyridin-3-amine] | 1
Cc1nc(-c2cncc(C(F)(F)F)c2)ccc1N [Compound A12] | 0
Nc1ccc(-c2cncnc2)nc1C(F)(F)F [Compound A35, 6-pyrimidin-5-yl-2-(trifluoromethyl)pyridin-3-amine] | 2
Fc1cncc(-c2ccc(NCc3ccc(C(F)(F)F)cc3)c(C(F)(F)F)n2)c1 [Compound A26] | 0
CCNc1ccc(-c2cncc(F)c2)nc1C(F)(F)F [Compound A27] | 2
CNc1ccc(-c2cncc(C)c2)nc1C(F)(F)F [Compound A6] | 0

Tested on: Echinochloa crus-galli (ECHCG)
Experiment: Pre-emergence herbicidal activity (B1)
Format: in vivo
Conditions: Test 1b, 1000 g/ha, evaluated after 13 days, 5=total damage to plant, 0=no damage to plant
Procedure: as §1, with “B1 Pre-Emergence” for “B2 Post-Emergence”, “After” for “After 8 days”, “for one day (pre-emergence)” for “(post-emergence)”, “B1a” for “B2a”, “B1b” for “B2b”, “Pre-Emergence” for “Post-Emergence”

SMILES | ECHCG damage score
Fc1cncc(-c2ccc(Nc3ccccc3)c(C(F)(F)F)n2)c1 [Compound A32, 6-(5-fluoro-3-pyridyl)-N-phenyl-2-(trifluoromethyl)pyridin-3-amine] | 4
Cc1nc(-c2cncc(C(F)(F)F)c2)ccc1N [Compound A12] | 0
Nc1ccc(-c2cncnc2)nc1C(F)(F)F [Compound A35, 6-pyrimidin-5-yl-2-(trifluoromethyl)pyridin-3-amine] | 3
Fc1cncc(-c2ccc(NCc3ccc(C(F)(F)F)cc3)c(C(F)(F)F)n2)c1 [Compound A26] | 2
CCNc1ccc(-c2cncc(F)c2)nc1C(F)(F)F [Compound A27] | 5
CNc1ccc(-c2cncc(C)c2)nc1C(F)(F)F [Compound A6] | 0

Tested on: Abutilon theophrasti (ABUTH)
Experiment: Pre-emergence herbicidal activity (B1)
Format: in vivo
Conditions: Test 1b, 1000 g/ha, evaluated after 13 days, 5=total damage to plant, 0=no damage to plant
Procedure: as §1, with “B1 Pre-Emergence” for “B2 Post-Emergence”, “After” for “After 8 days”, “for one day (pre-emergence)” for “(post-emergence)”, “B1a” for “B2a”, “B1b” for “B2b”, “Pre-Emergence” for “Post-Emergence”

SMILES | ABUTH damage score
Fc1cncc(-c2ccc(Nc3ccccc3)c(C(F)(F)F)n2)c1 [Compound A32, 6-(5-fluoro-3-pyridyl)-N-phenyl-2-(trifluoromethyl)pyridin-3-amine] | 1
Cc1nc(-c2cncc(C(F)(F)F)c2)ccc1N [Compound A12] | 0
Nc1ccc(-c2cncnc2)nc1C(F)(F)F [Compound A35, 6-pyrimidin-5-yl-2-(trifluoromethyl)pyridin-3-amine] | 0
Fc1cncc(-c2ccc(NCc3ccc(C(F)(F)F)cc3)c(C(F)(F)F)n2)c1 [Compound A26] | 0
CCNc1ccc(-c2cncc(F)c2)nc1C(F)(F)F [Compound A27] | 0
CNc1ccc(-c2cncc(C)c2)nc1C(F)(F)F [Compound A6] | 1

Tested on: Amaranthus retroflexus (AMARE)
Experiment: Pre-emergence herbicidal activity (B1)
Format: in vivo
Conditions: Test 1b, 1000 g/ha, evaluated after 13 days, 5=total damage to plant, 0=no damage to plant
Procedure: as §1, with “B1 Pre-Emergence” for “B2 Post-Emergence”, “After” for “After 8 days”, “for one day (pre-emergence)” for “(post-emergence)”, “B1a” for “B2a”, “B1b” for “B2b”, “Pre-Emergence” for “Post-Emergence”

SMILES | AMARE damage score
Fc1cncc(-c2ccc(Nc3ccccc3)c(C(F)(F)F)n2)c1 [Compound A32, 6-(5-fluoro-3-pyridyl)-N-phenyl-2-(trifluoromethyl)pyridin-3-amine] | 1
Cc1nc(-c2cncc(C(F)(F)F)c2)ccc1N [Compound A12] | 0
Nc1ccc(-c2cncnc2)nc1C(F)(F)F [Compound A35, 6-pyrimidin-5-yl-2-(trifluoromethyl)pyridin-3-amine] | 1
Fc1cncc(-c2ccc(NCc3ccc(C(F)(F)F)cc3)c(C(F)(F)F)n2)c1 [Compound A26] | 0
CCNc1ccc(-c2cncc(F)c2)nc1C(F)(F)F [Compound A27] | 0
CNc1ccc(-c2cncc(C)c2)nc1C(F)(F)F [Compound A6] | 1
